Results as given in US9828360B2 (Array BioPharma Inc., priority 2012, dated 2017).

How the values were obtained:
Assay in all cases: KinaseProfiler off-target kinase profiling
Assay type in all cases: biochemical
Conditions in all cases: 10 μM, ATP near Km
Bmx = target: T1, Bmx (Homo sapiens, UniProt P51813)
T1 construct: purchased Millipore, Inc. (KinaseProfiler service)
Procedure, shortened: (§1)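 Compound tested at one concentration, 10 μM, across the complete panel. Replicates: two. ATP: near Km, kinase by kinase. Reported value: averaged percent of control.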

CAMK2b = target: T2, CAMK2b (Homo sapiens, UniProt Q13554)
T2 construct: purchased Millipore, Inc. (KinaseProfiler service)
Procedure, shortened: as §1

CAMK4 = target: T3, CAMK4 (Homo sapiens, UniProt Q16566)
T3 construct: purchased Millipore, Inc. (KinaseProfiler service)
Procedure, shortened: as §1

CDK2/cyclinA = target: T4, CDK2/cyclinA (Homo sapiens, UniProt P24941)
T4 construct: purchased Millipore, Inc. (KinaseProfiler service)
Procedure, shortened: as §1

CDK5/p35 = target: T5, CDK5/p35 (Homo sapiens, UniProt Q00535)
T5 construct: purchased Millipore, Inc. (KinaseProfiler service)
Procedure, shortened: as §1

CDK6/cyclinD3 = target: T6, CDK6/cyclinD3 (Homo sapiens, UniProt Q00534)
T6 construct: purchased Millipore, Inc. (KinaseProfiler service)
Procedure, shortened: as §1

CDK7/cyclinH/MAT1 = target: T7, CDK7/cyclinH/MAT1 (Homo sapiens, UniProt P50613)
T7 construct: purchased Millipore, Inc. (KinaseProfiler service)
Procedure, shortened: as §1

CLK2 = target: T8, CLK2 (Homo sapiens, UniProt P49760)
T8 construct: purchased Millipore, Inc. (KinaseProfiler service)
Procedure, shortened: as §1

CSK = target: T9, CSK (Homo sapiens, UniProt P41240)
T9 construct: purchased Millipore, Inc. (KinaseProfiler service)
Procedure, shortened: as §1

DMPK = target: T10, DMPK (Homo sapiens, UniProt Q09013)
T10 construct: purchased Millipore, Inc. (KinaseProfiler service)
Procedure, shortened: as §1

EGFR = target: T11, EGFR (Homo sapiens, UniProt P00533)
T11 construct: purchased Millipore, Inc. (KinaseProfiler service)
Procedure, shortened: as §1

EphA1 = target: T12, EphA1 (Homo sapiens, UniProt P21709)
T12 construct: purchased Millipore, Inc. (KinaseProfiler service)
T12 sequence (P21709 26-976): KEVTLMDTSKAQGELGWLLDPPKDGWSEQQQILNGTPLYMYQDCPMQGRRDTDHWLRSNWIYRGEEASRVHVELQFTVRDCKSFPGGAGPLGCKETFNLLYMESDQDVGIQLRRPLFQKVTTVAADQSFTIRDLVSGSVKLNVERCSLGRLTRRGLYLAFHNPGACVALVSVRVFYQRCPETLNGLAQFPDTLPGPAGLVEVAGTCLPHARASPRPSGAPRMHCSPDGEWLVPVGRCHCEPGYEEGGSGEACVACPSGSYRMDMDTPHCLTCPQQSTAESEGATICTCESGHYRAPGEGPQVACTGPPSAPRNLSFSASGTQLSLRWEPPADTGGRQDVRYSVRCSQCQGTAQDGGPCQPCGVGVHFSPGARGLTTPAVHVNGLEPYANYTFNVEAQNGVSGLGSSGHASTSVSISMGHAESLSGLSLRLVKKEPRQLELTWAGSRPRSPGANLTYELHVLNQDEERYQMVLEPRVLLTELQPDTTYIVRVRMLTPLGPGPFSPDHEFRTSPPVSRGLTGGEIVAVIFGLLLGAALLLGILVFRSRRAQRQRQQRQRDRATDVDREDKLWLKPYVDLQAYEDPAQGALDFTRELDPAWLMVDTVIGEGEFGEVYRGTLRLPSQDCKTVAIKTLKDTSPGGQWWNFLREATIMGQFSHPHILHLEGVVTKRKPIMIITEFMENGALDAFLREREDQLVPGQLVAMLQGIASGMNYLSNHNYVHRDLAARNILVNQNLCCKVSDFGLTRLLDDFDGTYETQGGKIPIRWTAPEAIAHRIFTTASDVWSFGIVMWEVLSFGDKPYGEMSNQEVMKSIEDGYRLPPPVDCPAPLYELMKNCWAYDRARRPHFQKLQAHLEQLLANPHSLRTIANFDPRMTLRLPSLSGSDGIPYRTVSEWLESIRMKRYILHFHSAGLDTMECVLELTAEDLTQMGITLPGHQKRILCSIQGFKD
Procedure, shortened: as §1

EphA7 = target: T13, EphA7 (Homo sapiens, UniProt Q15375)
T13 construct: purchased Millipore, Inc. (KinaseProfiler service)
Procedure, shortened: as §1

FGFR1 = target: T14, FGFR1 (Homo sapiens, UniProt P11362)
T14 construct: purchased Millipore, Inc. (KinaseProfiler service)
Procedure, shortened: as §1

FGFR4 = target: T15, FGFR4 (Homo sapiens, UniProt P22455)
T15 construct: purchased Millipore, Inc. (KinaseProfiler service)
Procedure, shortened: as §1

Flt3 = target: T16, Flt3 (Homo sapiens, UniProt P36888)
T16 construct: purchased Millipore, Inc. (KinaseProfiler service)
Procedure, shortened: as §1

Fms = target: T17, Fms (Homo sapiens, UniProt P07333)
T17 construct: purchased Millipore, Inc. (KinaseProfiler service)
Procedure, shortened: as §1

HIPK1 = target: T18, HIPK1 (Homo sapiens, UniProt Q86Z02)
T18 construct: purchased Millipore, Inc. (KinaseProfiler service)
T18 sequence (Q86Z02 whole entry): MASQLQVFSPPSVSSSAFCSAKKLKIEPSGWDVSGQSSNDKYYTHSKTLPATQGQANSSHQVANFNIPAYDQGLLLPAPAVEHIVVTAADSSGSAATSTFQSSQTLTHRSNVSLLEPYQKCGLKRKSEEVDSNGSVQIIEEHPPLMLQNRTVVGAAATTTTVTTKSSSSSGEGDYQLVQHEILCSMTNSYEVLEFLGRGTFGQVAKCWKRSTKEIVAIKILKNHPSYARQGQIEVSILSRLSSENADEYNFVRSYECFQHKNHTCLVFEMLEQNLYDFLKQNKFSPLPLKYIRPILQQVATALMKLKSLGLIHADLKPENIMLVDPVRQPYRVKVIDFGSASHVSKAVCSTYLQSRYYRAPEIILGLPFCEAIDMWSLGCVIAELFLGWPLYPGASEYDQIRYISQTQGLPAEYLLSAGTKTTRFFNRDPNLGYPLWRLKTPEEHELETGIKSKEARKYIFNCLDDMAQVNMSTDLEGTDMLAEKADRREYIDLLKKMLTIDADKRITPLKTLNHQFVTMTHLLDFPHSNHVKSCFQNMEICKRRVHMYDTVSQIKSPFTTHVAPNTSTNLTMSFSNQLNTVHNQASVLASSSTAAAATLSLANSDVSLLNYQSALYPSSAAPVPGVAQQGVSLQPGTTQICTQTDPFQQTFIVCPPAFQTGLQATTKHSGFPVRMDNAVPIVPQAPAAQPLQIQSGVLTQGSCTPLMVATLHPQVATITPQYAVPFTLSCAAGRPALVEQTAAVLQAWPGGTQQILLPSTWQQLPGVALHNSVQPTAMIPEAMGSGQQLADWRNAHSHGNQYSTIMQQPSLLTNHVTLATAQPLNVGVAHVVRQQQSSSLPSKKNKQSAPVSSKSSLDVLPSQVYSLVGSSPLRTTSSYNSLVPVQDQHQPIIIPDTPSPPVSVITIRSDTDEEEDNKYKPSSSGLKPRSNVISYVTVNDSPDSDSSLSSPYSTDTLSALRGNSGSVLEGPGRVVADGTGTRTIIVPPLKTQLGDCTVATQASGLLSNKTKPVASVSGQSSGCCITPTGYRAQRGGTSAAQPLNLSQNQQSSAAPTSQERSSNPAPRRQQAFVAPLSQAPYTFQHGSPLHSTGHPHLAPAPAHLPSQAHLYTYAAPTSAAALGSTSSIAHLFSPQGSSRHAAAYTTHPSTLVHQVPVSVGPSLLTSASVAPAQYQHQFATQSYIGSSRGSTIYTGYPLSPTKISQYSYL
Procedure, shortened: as §1

JNK2alpha2 = target: T19, JNK2alpha2 (Homo sapiens, UniProt P45984)
T19 construct: purchased Millipore, Inc. (KinaseProfiler service)
Procedure, shortened: as §1

LOK = target: T20, LOK (Homo sapiens, UniProt O94804)
T20 construct: purchased Millipore, Inc. (KinaseProfiler service)
T20 sequence (O94804 whole entry): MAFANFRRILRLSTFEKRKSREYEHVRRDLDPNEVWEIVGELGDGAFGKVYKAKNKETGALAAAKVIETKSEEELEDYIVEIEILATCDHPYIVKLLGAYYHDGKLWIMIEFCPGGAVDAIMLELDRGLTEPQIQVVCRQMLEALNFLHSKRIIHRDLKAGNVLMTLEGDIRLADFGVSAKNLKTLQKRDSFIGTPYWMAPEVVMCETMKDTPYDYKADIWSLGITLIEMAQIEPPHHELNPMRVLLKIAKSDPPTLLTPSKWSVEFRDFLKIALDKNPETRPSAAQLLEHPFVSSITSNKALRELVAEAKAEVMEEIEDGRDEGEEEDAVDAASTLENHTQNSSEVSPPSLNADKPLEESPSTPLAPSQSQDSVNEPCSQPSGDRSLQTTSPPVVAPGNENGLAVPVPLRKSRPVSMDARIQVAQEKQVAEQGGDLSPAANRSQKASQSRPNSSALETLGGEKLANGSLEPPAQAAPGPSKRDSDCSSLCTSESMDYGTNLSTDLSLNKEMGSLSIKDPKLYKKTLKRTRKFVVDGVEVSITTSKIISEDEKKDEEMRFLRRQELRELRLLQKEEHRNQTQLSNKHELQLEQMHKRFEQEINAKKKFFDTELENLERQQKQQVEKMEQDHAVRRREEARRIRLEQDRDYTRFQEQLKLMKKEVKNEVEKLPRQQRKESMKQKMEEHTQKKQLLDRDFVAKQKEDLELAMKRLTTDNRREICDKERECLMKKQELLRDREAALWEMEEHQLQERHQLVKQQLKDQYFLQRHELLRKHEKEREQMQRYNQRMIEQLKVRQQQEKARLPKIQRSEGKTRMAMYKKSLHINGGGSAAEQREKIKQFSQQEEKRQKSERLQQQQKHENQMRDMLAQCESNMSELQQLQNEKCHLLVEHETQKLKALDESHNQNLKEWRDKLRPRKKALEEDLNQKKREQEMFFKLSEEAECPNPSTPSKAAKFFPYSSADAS
Procedure, shortened: as §1

Lck = target: T21, Lck (Homo sapiens, UniProt P06239)
T21 construct: purchased Millipore, Inc. (KinaseProfiler service)
Procedure, shortened: as §1

MAPKAP-K2 = target: T22, MAPKAP-K2 (Homo sapiens, UniProt P49137)
T22 construct: purchased Millipore, Inc. (KinaseProfiler service)
T22 sequence (P49137 whole entry): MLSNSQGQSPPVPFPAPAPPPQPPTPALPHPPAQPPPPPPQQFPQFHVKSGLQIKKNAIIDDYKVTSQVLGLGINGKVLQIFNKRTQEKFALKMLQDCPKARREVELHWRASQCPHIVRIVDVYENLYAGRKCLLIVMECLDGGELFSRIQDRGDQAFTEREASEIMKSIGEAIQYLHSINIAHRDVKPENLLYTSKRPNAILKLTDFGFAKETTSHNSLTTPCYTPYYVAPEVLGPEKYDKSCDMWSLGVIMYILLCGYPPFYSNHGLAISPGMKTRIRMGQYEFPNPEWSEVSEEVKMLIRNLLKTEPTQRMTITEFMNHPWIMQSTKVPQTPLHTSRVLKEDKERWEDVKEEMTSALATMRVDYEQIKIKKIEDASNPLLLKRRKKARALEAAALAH
Procedure, shortened: as §1

MAPKAP-K3 = target: T23, MAPKAP-K3 (Homo sapiens, UniProt Q16644)
T23 construct: purchased Millipore, Inc. (KinaseProfiler service)
T23 sequence (Q16644 whole entry): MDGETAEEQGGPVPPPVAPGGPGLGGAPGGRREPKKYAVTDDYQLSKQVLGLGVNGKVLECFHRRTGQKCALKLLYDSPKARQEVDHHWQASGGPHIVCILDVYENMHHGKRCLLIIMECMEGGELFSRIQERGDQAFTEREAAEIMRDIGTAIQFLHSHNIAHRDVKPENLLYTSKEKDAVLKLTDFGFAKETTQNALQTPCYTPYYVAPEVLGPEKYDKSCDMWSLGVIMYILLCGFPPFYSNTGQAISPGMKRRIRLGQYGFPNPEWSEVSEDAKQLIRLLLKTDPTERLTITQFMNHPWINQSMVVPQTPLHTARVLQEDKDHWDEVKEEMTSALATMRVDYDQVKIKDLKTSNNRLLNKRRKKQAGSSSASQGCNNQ
Procedure, shortened: as §1

MKK6 = target: T24, MKK6 (Homo sapiens, UniProt P52564)
T24 construct: purchased Millipore, Inc. (KinaseProfiler service)
Procedure, shortened: as §1

MLK1 = target: T25, MLK1 (Homo sapiens, UniProt P80192)
T25 construct: purchased Millipore, Inc. (KinaseProfiler service)
Procedure, shortened: as §1

Mer = target: T26, Mer (Homo sapiens, UniProt Q12866)
T26 construct: purchased Millipore, Inc. (KinaseProfiler service)
Procedure, shortened: as §1

Met = target: T27, Met (Homo sapiens, UniProt P08581)
T27 construct: purchased Millipore, Inc. (KinaseProfiler service)
Procedure, shortened: as §1

MuSK = target: T28, MuSK (Homo sapiens, UniProt O15146)
T28 construct: purchased Millipore, Inc. (KinaseProfiler service)
T28 sequence (O15146 24-869): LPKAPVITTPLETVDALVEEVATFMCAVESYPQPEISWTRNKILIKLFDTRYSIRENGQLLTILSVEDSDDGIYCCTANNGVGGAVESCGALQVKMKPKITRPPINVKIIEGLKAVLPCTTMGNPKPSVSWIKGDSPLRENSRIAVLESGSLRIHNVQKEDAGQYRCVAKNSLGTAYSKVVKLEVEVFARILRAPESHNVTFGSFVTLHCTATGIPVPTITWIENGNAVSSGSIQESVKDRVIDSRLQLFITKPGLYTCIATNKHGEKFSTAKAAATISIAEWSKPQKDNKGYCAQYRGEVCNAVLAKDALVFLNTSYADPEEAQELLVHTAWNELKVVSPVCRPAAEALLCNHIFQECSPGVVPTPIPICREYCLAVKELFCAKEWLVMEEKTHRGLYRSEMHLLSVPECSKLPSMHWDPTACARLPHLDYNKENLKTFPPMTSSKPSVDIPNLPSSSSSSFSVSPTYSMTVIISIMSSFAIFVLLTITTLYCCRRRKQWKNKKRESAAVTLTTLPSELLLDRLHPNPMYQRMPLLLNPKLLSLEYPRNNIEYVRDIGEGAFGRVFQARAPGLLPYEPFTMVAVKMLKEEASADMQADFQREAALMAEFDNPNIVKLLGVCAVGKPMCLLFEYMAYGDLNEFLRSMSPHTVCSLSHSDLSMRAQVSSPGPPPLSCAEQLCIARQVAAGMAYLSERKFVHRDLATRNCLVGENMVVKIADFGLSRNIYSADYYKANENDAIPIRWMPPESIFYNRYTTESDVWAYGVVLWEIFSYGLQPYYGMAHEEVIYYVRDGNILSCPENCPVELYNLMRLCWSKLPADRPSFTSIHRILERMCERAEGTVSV
Procedure, shortened: as §1

NEK11 = target: T29, NEK11 (Homo sapiens, UniProt Q8NG66)
T29 construct: purchased Millipore, Inc. (KinaseProfiler service)
Procedure, shortened: as §1

NEK6 = target: T30, NEK6 (Homo sapiens, UniProt Q9HC98)
T30 construct: purchased Millipore, Inc. (KinaseProfiler service)
Procedure, shortened: as §1

PAK2 = target: T31, PAK2 (Homo sapiens, UniProt Q13177)
T31 construct: purchased Millipore, Inc. (KinaseProfiler service)
Procedure, shortened: as §1

PKCalpha = target: T32, PKCalpha (Homo sapiens, UniProt P17252)
T32 construct: purchased Millipore, Inc. (KinaseProfiler service)
Procedure, shortened: as §1

PKCbetaI = target: T33, PKCbetaI (Homo sapiens, UniProt P05771)
T33 construct: purchased Millipore, Inc. (KinaseProfiler service)
Procedure, shortened: as §1

PhKgamma2 = target: T34, PhKgamma2 (Homo sapiens, UniProt P15735)
T34 construct: purchased Millipore, Inc. (KinaseProfiler service)
Procedure, shortened: as §1

Pim-1 = target: T35, Pim-1 (Homo sapiens, UniProt P11309)
T35 construct: purchased Millipore, Inc. (KinaseProfiler service)
T35 sequence (P11309 whole entry): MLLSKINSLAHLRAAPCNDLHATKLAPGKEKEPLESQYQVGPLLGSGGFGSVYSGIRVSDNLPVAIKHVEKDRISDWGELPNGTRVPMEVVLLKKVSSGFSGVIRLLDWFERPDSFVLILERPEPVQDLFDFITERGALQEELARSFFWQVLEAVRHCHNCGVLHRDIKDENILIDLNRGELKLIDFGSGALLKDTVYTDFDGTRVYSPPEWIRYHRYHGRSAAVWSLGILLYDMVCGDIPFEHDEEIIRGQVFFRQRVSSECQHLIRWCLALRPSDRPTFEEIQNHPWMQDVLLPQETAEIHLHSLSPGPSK
Procedure, shortened: as §1

Plk2 = target: T36, Plk2 (Homo sapiens, UniProt Q9NYY3)
T36 construct: purchased Millipore, Inc. (KinaseProfiler service)
Procedure, shortened: as §1

RIPK2 = target: T37, RIPK2 (Homo sapiens, UniProt O43353)
T37 construct: purchased Millipore, Inc. (KinaseProfiler service)
Procedure, shortened: as §1

Rsk3 = target: T38, Rsk3 (Homo sapiens, UniProt Q15349)
T38 construct: purchased Millipore, Inc. (KinaseProfiler service)
Procedure, shortened: as §1

WNK3 = target: T39, WNK3 (Homo sapiens, UniProt Q9BYP7)
T39 construct: purchased Millipore, Inc. (KinaseProfiler service)
Procedure, shortened: as §1

eEF-2K = target: T40, eEF-2K (Homo sapiens, UniProt O00418)
T40 construct: purchased Millipore, Inc. (KinaseProfiler service)
Procedure, shortened: as §1

p38delta = target: T41, p38delta (Homo sapiens, UniProt O15264)
T41 construct: purchased Millipore, Inc. (KinaseProfiler service)
Procedure, shortened: as §1

COCCN1C[C@@H](NC(=O)Nc2sc(C(C)C)nc2-c2ccccc2)[C@H](c2ccccc2)C1 [Example 48, 1-(2-isopropyl-4-phenylthiazol-5-yl)-3-((3S,4R)-1-(2-methoxyethyl)-4-phenylpyrrolidin-3-yl)urea]
Avg POC (Bmx): 122% of control
Avg POC (CAMK2b): 90% of control
Avg POC (CAMK4): 101.5% of control
Avg POC (CDK2/cyclinA): 110% of control
Avg POC (CDK5/p35): 109.5% of control
Avg POC (CDK6/cyclinD3): 112.5% of control
Avg POC (CDK7/cyclinH/MAT1): 112.5% of control
Avg POC (CLK2): 116% of control
Avg POC (CSK): 108% of control
Avg POC (DMPK): 106% of control
Avg POC (EGFR): 111% of control
Avg POC (EphA1): 113.5% of control
Avg POC (EphA7): 101% of control
Avg POC (FGFR1): 98% of control
Avg POC (FGFR4): 102.5% of control
Avg POC (Flt3): 99% of control
Avg POC (Fms): 96% of control
Avg POC (HIPK1): 119.5% of control
Avg POC (JNK2alpha2): 93.5% of control
Avg POC (LOK): 107.5% of control
Avg POC (Lck): 102% of control
Avg POC (MAPKAP-K2): 109.5% of control
Avg POC (MAPKAP-K3): 75.5% of control
Avg POC (MKK6): 121% of control
Avg POC (MLK1): 115% of control
Avg POC (Mer): 126.5% of control
Avg POC (Met): 109% of control
Avg POC (MuSK): 107.5% of control
Avg POC (NEK11): 105% of control
Avg POC (NEK6): 121.5% of control
Avg POC (PAK2): 101.5% of control
Avg POC (PKCalpha): 106.5% of control
Avg POC (PKCbetaI): 97% of control
Avg POC (PhKgamma2): 110% of control
Avg POC (Pim-1): 134% of control
Avg POC (Plk2): 99.5% of control
Avg POC (RIPK2): 108% of control
Avg POC (Rsk3): 108% of control
Avg POC (WNK3): 99.5% of control
Avg POC (eEF-2K): 116.5% of control
Avg POC (p38delta): 108.5% of control
